Test results taken from ChEMBL document CHEMBL3885881, “DrugMatrix”.

Species on record: Rattus norvegicus
Assay: DrugMatrix - Regimen: Daily Repeat
Assay type: toxicity, organism-based, Sprague-Dawley
Parameters: regimen Daily Repeat, gender Male, age 6-8 weeks
Conditions: in vivo, po, 70 mg/kg, route oral GAVAGE, dose level Low, vehicle 100 % WATER; for ABSOLUTE BASOPHIL / ABSOLUTE EOSINOPHIL / ABSOLUTE LYMPHOCYTE / ABSOLUTE MONOCYTE / ABSOLUTE SEGMENTED NEUTROPHIL / BASOPHIL / EOSINOPHIL / ERYTHROCYTE COUNT / HEMATOCRIT / HEMOGLOBIN / LEUKOCYTE COUNT / LYMPHOCYTE / MEAN CORPUSCULAR HEMOGLOBIN / MEAN CORPUSCULAR HEMOGLOBIN CONCENTRATION / MEAN CORPUSCULAR VOLUME / MONOCYTE / NEUTROPHIL / NUCLEATED RED BLOOD CELLS: tissue Blood; for ALANINE AMINOTRANSFERASE / ALBUMIN / ALKALINE PHOSPHATASE / ASPARTATE AMINOTRANSFERASE / BLOOD UREA NITROGEN / CARBON DIOXIDE / CHLORIDE / CHOLESTEROL / CREATINE PHOSPHOKINASE / CREATININE / LACTATE DEHYDROGENASE / LIPASE / PHOSPHORUS / POTASSIUM / SODIUM / TOTAL BILIRUBIN / TOTAL PROTEIN / URIC ACID: tissue Plasma

CN(C)CCCN1c2ccccc2CCc2ccc(Cl)cc21 [CLOMIPRAMINE]
ABSOLUTE BASOPHIL (72 h, time 3 day): 0 CELLS/uL
ABSOLUTE EOSINOPHIL (72 h, time 3 day): 0 CELLS/uL
ABSOLUTE LYMPHOCYTE (72 h, time 3 day): 11511.33 CELLS/uL
ABSOLUTE MONOCYTE (72 h, time 3 day): 50 CELLS/uL
ABSOLUTE SEGMENTED NEUTROPHIL (72 h, time 3 day): 672 CELLS/uL
BASOPHIL (72 h, time 3 day): 0%
EOSINOPHIL (72 h, time 3 day): 0%
ERYTHROCYTE COUNT (72 h, time 3 day): 5.82 x10E6/uL
HEMATOCRIT (72 h, time 3 day): 36.17%
HEMOGLOBIN (72 h, time 3 day): 14.27 G/DL
LEUKOCYTE COUNT (72 h, time 3 day): 12.23 x10E3/uL
LYMPHOCYTE (72 h, time 3 day): 94%
MEAN CORPUSCULAR HEMOGLOBIN (72 h, time 3 day): 24.53 pg
MEAN CORPUSCULAR HEMOGLOBIN CONCENTRATION (72 h, time 3 day): 39.47 G/DL
MEAN CORPUSCULAR VOLUME (72 h, time 3 day): 62.17 fL
MONOCYTE (72 h, time 3 day): 0.33%
NEUTROPHIL (72 h, time 3 day): 5.67%
NUCLEATED RED BLOOD CELLS (72 h, time 3 day): 0.33 /100WBC
ALANINE AMINOTRANSFERASE (72 h, time 3 day): 52.33 u/L
ALBUMIN (72 h, time 3 day): 4.17 G/DL
ALKALINE PHOSPHATASE (72 h, time 3 day): 458.67 u/L
ASPARTATE AMINOTRANSFERASE (72 h, time 3 day): 99 u/L
BLOOD UREA NITROGEN (72 h, time 3 day): 15.67 mg/dL
CARBON DIOXIDE (72 h, time 3 day): 24.67 mmol/L
CHLORIDE (72 h, time 3 day): 101 MEQ/L
CHOLESTEROL (72 h, time 3 day): 73 mg/dL
CREATINE PHOSPHOKINASE (72 h, time 3 day): 853.67 u/L
CREATININE (72 h, time 3 day): 0.22 mg/dL
LACTATE DEHYDROGENASE (72 h, time 3 day): 317.67 u/L
LIPASE (72 h, time 3 day): 9 u/L
PHOSPHORUS (72 h, time 3 day): 13.47 mg/dL
POTASSIUM (72 h, time 3 day): 6.22 MEQ/L
SODIUM (72 h, time 3 day): 146.57 MEQ/L
TOTAL BILIRUBIN (72 h, time 3 day): 0.27 mg/dL
TOTAL PROTEIN (72 h, time 3 day): 6.07 G/DL
URIC ACID (72 h, time 3 day): 1.93 mg/dL
ABSOLUTE BASOPHIL (120 h, time 5 day): 0 CELLS/uL
ABSOLUTE EOSINOPHIL (120 h, time 5 day): 39.67 CELLS/uL
ABSOLUTE LYMPHOCYTE (120 h, time 5 day): 12212 CELLS/uL
ABSOLUTE MONOCYTE (120 h, time 5 day): 206.67 CELLS/uL
ABSOLUTE SEGMENTED NEUTROPHIL (120 h, time 5 day): 1075 CELLS/uL
BASOPHIL (120 h, time 5 day): 0%
EOSINOPHIL (120 h, time 5 day): 0.33%
ERYTHROCYTE COUNT (120 h, time 5 day): 6.52 x10E6/uL
HEMATOCRIT (120 h, time 5 day): 41.7%
HEMOGLOBIN (120 h, time 5 day): 15.97 G/DL
LEUKOCYTE COUNT (120 h, time 5 day): 13.53 x10E3/uL
LYMPHOCYTE (120 h, time 5 day): 90.33%
MEAN CORPUSCULAR HEMOGLOBIN (120 h, time 5 day): 24.53 pg
MEAN CORPUSCULAR HEMOGLOBIN CONCENTRATION (120 h, time 5 day): 38.27 G/DL
MEAN CORPUSCULAR VOLUME (120 h, time 5 day): 64.07 fL
MONOCYTE (120 h, time 5 day): 1.33%
NEUTROPHIL (120 h, time 5 day): 8%
NUCLEATED RED BLOOD CELLS (120 h, time 5 day): 1 /100WBC
ALANINE AMINOTRANSFERASE (120 h, time 5 day): 54 u/L
ALBUMIN (120 h, time 5 day): 4.67 G/DL
ALKALINE PHOSPHATASE (120 h, time 5 day): 417.67 u/L
ASPARTATE AMINOTRANSFERASE (120 h, time 5 day): 75.33 u/L
BLOOD UREA NITROGEN (120 h, time 5 day): 13.33 mg/dL
CARBON DIOXIDE (120 h, time 5 day): 27.67 mmol/L
CHLORIDE (120 h, time 5 day): 100.33 MEQ/L
CHOLESTEROL (120 h, time 5 day): 74 mg/dL
CREATINE PHOSPHOKINASE (120 h, time 5 day): 213 u/L
CREATININE (120 h, time 5 day): 0.2 mg/dL
LACTATE DEHYDROGENASE (120 h, time 5 day): 196.67 u/L
LIPASE (120 h, time 5 day): 8.67 u/L
PHOSPHORUS (120 h, time 5 day): 12.07 mg/dL
POTASSIUM (120 h, time 5 day): 6.7 MEQ/L
SODIUM (120 h, time 5 day): 146.33 MEQ/L
TOTAL BILIRUBIN (120 h, time 5 day): 0.2 mg/dL
TOTAL PROTEIN (120 h, time 5 day): 6.57 G/DL
URIC ACID (120 h, time 5 day): 1.57 mg/dL
